From patent US20220331333A1, “RHOA PATHWAY INHIBITOR IN THE TREATMENT OF NEURODEVELOPMENTAL DISORDER OR NEUROPSYCHIATRIC DISORDER” (UNIVERSITE DE STRASBOURG, priority 2021, published 2022)

Experiments:
Kctd13^+/− mouse model [1] = test: Open field test after chronic fasudil treatment, Kctd13+/− line; assay type: in vivo; conditions: Kctd13+/− and wt littermates, 100 mg/kg/day orally in drinking water, 4 weeks
Description: (§1) In this study, the inventors developed a protocol for a pre-clinical treatment (FIG. 1) with the drug fasudil hydrochloride or HA1077 ([…], LC laboratories Boston, Mass., USA). […] Animal bedding was changed once a week. At 11 weeks, animals were transferred from the animal facility to the phenotyping area. The temperature was kept at 21±2° C., and the light cycle was controlled as 12 h light and 12 h dark. At 12 weeks of age, three independent cohorts of mice for each line, with wild-type (wt) and mutant littermates, were subjected to a battery of behavioral tests (see below) for 2 weeks. […] The dose was estimated to 152.7 mg in feeding bottle (250 ml) changed twice a week considering the previous study in which the drinking volume was evaluated to about 4.6 ml/day/mouse. […] During each session the exploration activity was analyzed by measuring the total distance travelled, evaluated the adaptation of the mice to the environment over time, by splitting the data in intervals of 10 minutes and assessed the vertical activity through the number of rears. […] The exploration time of both objects A was recorded. […] The exploration time of the two objects (familiar object and novel object) was recorded. […] Data from behavioral characterization of Kctd13^+/- and 16p11.2 Del/+ mouse models were analyzed through the Student t-test (see supplementary table 1 and table 2 as a summary). […]

[2] = system: 16p11.2 Del/+ mouse model; test: Open field test after chronic fasudil treatment, 16p11.2 Del/+ line; assay type: in vivo; conditions: 16p11.2 Del/+ and wt littermates, 100 mg/kg/day orally in drinking water, 4 weeks
Description: as §1

Kctd13^+/− mouse model [3] = test: Novel object recognition (NOR) test after chronic fasudil treatment, Kctd13+/− line; assay type: in vivo; conditions: Kctd13+/− mice, 100 mg/kg/day orally in drinking water, tested at 19 weeks, 3 h retention delay
Description: as §1

[4] = system: 16p11.2 Del/+ mouse model; test: Novel object recognition (NOR) test after chronic fasudil treatment, 16p11.2 Del/+ line; assay type: in vivo; conditions: 16p11.2 Del/+ mice, 100 mg/kg/day orally in drinking water, tested at 19 weeks, 3 h retention delay
Description: as §1

RHOA [5] = test: Western blot of RHOA in hippocampal lysates, Kctd13+/− line; assay type: in vivo, mouse; conditions: fasudil for 6 weeks, 18-week-old mice
Description: (§2) At 12 weeks of age, three independent cohorts of mice for each line, with wild-type (wt) and mutant littermates, were subjected to a battery of behavioral tests (see below) for 2 weeks. Then, 14 weeks old mice were randomly divided into 2 groups: one treated with fasudil administrated orally ad libitum in drinking water to reach a dose of 100 mg/kg/day and a second with no treatment. The dose was estimated to 152.7 mg in feeding bottle (250 ml) changed twice a week considering the previous study in which the drinking volume was evaluated to about 4.6 ml/day/mouse. […]
(§3) Fresh hippocampal tissues were isolated by rapid decapitation/dissection of naive mice and snap frozen. […] Protein concentration was determined by Pierce™ BCA Protein Assay Kit (23225, Thermo Fisher Scientific, Strasbourg). […] Total levels of RHOA protein and Myosin Light Chain phosphorylation by Myosin Light Chain Kinase via RHOA pathway were analyzed using Western Blot. […] Signals were quantified using ImageJ and analyzed using Microsoft Excel and GraphPad Prism. […] The ratio of protein level or phosphorylation level against control β-actin protein level (detected with a mouse monoclonal Anti-βActin-Peroxidase antibody (A3854 Sigma)) was normalized to untreated wt sample mean. […]

RHOA [6] = test: Western blot of RHOA in hippocampal lysates, 16p11.2 Del/+ line; assay type: in vivo, mouse; conditions: fasudil for 6 weeks, 18-week-old mice
Description: as §2, §3

[7] = system: phosphorylated form of MLC (P-MLC); test: Western blot of phosphorylated MLC in hippocampal lysates, Kctd13+/− line; assay type: in vivo, mouse; conditions: Kctd13+/− mutant mice, fasudil for 6 weeks, 18-week-old mice
Description: as §2, §3

[8] = system: phosphorylated form of MLC (P-MLC); test: Western blot of phosphorylated MLC in hippocampal lysates, 16p11.2 Del/+ line; assay type: in vivo, mouse; conditions: fasudil for 6 weeks, 18-week-old mice
Description: as §2, §3

## O=S(=O)(c1cccc2cnccc12)N1CCCNCC1 [fasudil, hexahydro-1-(5-isoquinolinesulfonyl)-1H-1,4-diazepine]
Kctd13^+/− mouse model [1]
  vertical activity (number of rears) in open field: did not have effect on any genotype for the vertical activity
Kctd13^+/− mouse model [1]; treated vs non-treated
  locomotor exploration activity (total distance travelled) in open field: did not change the locomotor exploration activity
[2]
  vertical activity (number of rears) in open field: did not have effect on any genotype for the vertical activity
[2]; treated vs non-treated
  locomotor exploration activity (total distance travelled) in open field: did not change the locomotor exploration activity
Kctd13^+/− mouse model [3]
  novel object recognition (recognition index vs 50% chance level): significantly improved the NOR defect
[4]
  novel object recognition (recognition index vs 50% chance level): significantly improved the NOR defect
RHOA [5]
  RHOA protein levels in hippocampus: did not cause changes in RHOA protein levels
RHOA [6]
  RHOA protein levels in hippocampus: did not cause changes in RHOA protein levels
[7]
  MLC phosphorylation levels in hippocampus: reduced MLC phosphorylation levels
[8]; 16p11.2 Del/+ mutant mice
  MLC phosphorylation levels in hippocampus: restored a normal MLC phosphorylation
[8]; wt littermates of the 16p11.2 Del/+ line
  MLC phosphorylation levels in hippocampus: induced increased MLC phosphorylation in wt mice
